According to US20210379026A1, “METHODS FOR TREATING OR PREVENTING SKIN CONDITIONS” (Drexel University, priority 2018, published 2021):
Entries after “also recorded” stand apart in the source; their conditions may differ.

Tests used:
[1] = test system: p16; assay: Nuclear p16 immunohistochemistry of human skin biopsies after topical treatment; assay type: in vivo; conditions: formulation of 1 micromolar rapamycin, 0.5 cc daily, 240 days, vs vehicle control; FIG. 1
Description: Human skin was treated with a formulation of 1 micromolar rapamycin or an identical formulation containing a vehicle control for 240 days. 0.5 cc of the formulation was applied daily. Skin biopsies (N=8) were processed for immunohistochemistry and nuclear p16 was quantified using the Leica Aperio software system.

[2] = test system: human skin; assay: Histology (Hematoxylin Eosin stain) of dorsal hand skin biopsies after topical cream; assay type: in vivo; conditions: topical cream 10 μM vs placebo
Description: (§1) Patients were provided with a proprietary topical formulation of rapamycin (0.001%; equivalent to 10 μM) or a placebo formulation that is identical with the exception that rapamycin was not included. For seborrheic keratosis, patients were instructed to apply the formulation to a localized area of the skin up to 1 cm around the lesion, in the evening before bed. Patients were instructed to apply the cream to the dorsal side of the hand once a day, in the evening before bed.
(§2) The cream included the following ingredients: Polyoxyethylene (40) stearate, Polyoxyethylene (20) sorbitan monooleate, glycerol monostearate, paraffin, cetyl alcohol, mineral oil, water, propylene glycol, sorbitol, glycerol, methylparaben.
(§3) Patients were provided with a 4 week supply of creams labeled by a number with no indication of whether they contained rapamycin. Patients were instructed to contact the study personnel if any irritation or negative reaction occurred at any time.
Hematoxylin Eosin stain of human skin biopsies from the dorsal hand of a patient following the application of a topical cream either containing rapamycin (10 μM) or placebo are shown in FIG. 2. Histologic evidence of actinic (solar) elastoses is indicated with an arrow.
40× magnified images of human skin biopsies from the dorsal hand of a patient following the application of a topical cream either containing rapamycin (10 μM) or placebo are shown in FIG. 3.
40× magnified images of human skin biopsies from the dorsal hand of a patient following the application of a topical cream either containing rapamycin (10 μM) or placebo are shown in FIG. 4.

[3] = test system: cytokeratin 5/6; assay: Cytokeratin 5/6 staining of dorsal hand skin biopsies after topical cream; assay type: in vivo, human; conditions: topical cream 10 μM vs placebo, dorsal hand biopsy; FIG. 5 and FIG. 6 (40×)
Description: as §1, §2
Human skin biopsies from the dorsal hand of a patient following the application of a topical cream either containing rapamycin (10 μM) or placebo were stained with antibodies recognizing cytokeratin 5/6 (brown staining), which is a marker for basal cells in the epidermis.

[4] = test system: human skin; assay: Clinical appearance of the hand after rapamycin cream versus placebo-treated hand; assay type: in vivo; conditions: 10 μM (0.001%) cream, 6 months, person, placebo on left hand; FIG. 7
Description: as §1, §2, §3
Placebo treated left hand is provided for comparison.

[5] = test system: purpura; assay: Recurrent purpura in a patient under topical treatment; assay type: in vivo, human; conditions: 0.001%, 4.5 months, one person with recurrent purpura; FIG. 8
Description: as §1
A person was treated with rapamycin (0.001%) for 4.5 months. The patient was a cancer survivor, multiple round of chemotherapy, recurrent purpura with subsequent scarring. […] Treatment was discontinued at end of trial.

[6] = test system: human cells; assay: Protection of cultured cells from UV-induced cell death; assay type: cell-based
Description: Cells grown in the presence or absence of 1 nM rapamycin were exposed to increasing amounts of UV radiation and cell numbers were determined following 24 hours. […] In FIG. 9B, a representative photograph of the control culture 24 hours following UV is presented. Note the typical hallmarks of apoptosis including rounded floating cells and typical cell blebbing.

[7] = dorsal hand biopsy, 40× images, FIG. 4

CO[C@H]1C[C@@H]2CC[C@@H](C)[C@@](O)(O2)C(=O)C(=O)N2CCCC[C@H]2C(=O)O[C@H]([C@H](C)C[C@@H]2CC[C@@H](O)[C@H](OC)C2)CC(=O)[C@H](C)/C=C(\C)[C@@H](O)[C@@H](OC)C(=O)[C@H](C)C[C@H](C)/C=C/C=C/C=C/1C [rapamycin]
p16 levels in human skin (nuclear p16, immunohistochemistry) [1]: reduced the p16 levels in human skin | histological markers of aged/damaged skin (actinic (solar) elastoses) ([2]; dorsal hand biopsies, multiple patients, FIG. 2): a reduction in the presence of these histological markers of aged/damaged skin | arrangement of the epithelial layer ([2]; dorsal hand biopsy, 40× images, FIG. 3): more orderly arrangement of the epithelial layer | arrangement of collagen fibers [2, 7]: more orderly arrangement of collagen fibers | solar elastoses [2, 7]: fewer solar elastoses | location of cytokeratin 5/6 (CK 5/6) staining in the epidermis [3]: more focally located in the basal layer of the skin; also recorded: remained restricted to the basal layer | clinical improvement of the hand [4]: clinical improvement | purpura [5]: significant reduction in purpura | cell death following UV irradiation (percent cell loss) ([6]; 1 nM rapamycin, increasing amounts of UV radiation, cell numbers after 24 hours, P=0.0044, FIG. 9A): reduction in cell death | apoptotic cells in culture after UV ([6]; culture grown in 1 nM rapamycin, 24 hours following UV, FIG. 9C): notable lack of apoptotic cells
